# Results reported in PubChem BioAssay (NCI).
#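 Here, GI50 denotes the concentration required for 50% inhibition of growth. At the TGI there is no net growth.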
# Legend:
# Assay in all cases: NCI-60 cell line screen, 384-well format
# 786-0 renal = system: 786-0 renal
# A498 renal = system: A498 renal
# A549 NSCLC = system: A549 NSCLC
# ACHN renal = system: ACHN renal
# BT-549 breast = system: BT-549 breast
# CAKI-1 renal = system: CAKI-1 renal
# CCRF-CEM leukemia = system: CCRF-CEM leukemia
# COLO 205 colon = system: COLO 205 colon
# DU-145 prostate = system: DU-145 prostate
# EKVX NSCLC = system: EKVX NSCLC
# HCC-2998 colon = system: HCC-2998 colon
# HCT-15 colon = system: HCT-15 colon
# HL-60(TB) leukemia = system: HL-60(TB) leukemia
# HOP-62 NSCLC = system: HOP-62 NSCLC
# HOP-92 NSCLC = system: HOP-92 NSCLC
# HS 578T breast = system: HS 578T breast
# HT29 colon = system: HT29 colon
# IGROV1 ovarian = system: IGROV1 ovarian
# K-562 leukemia = system: K-562 leukemia
# KM12 colon = system: KM12 colon
# LOX IMVI melanoma = system: LOX IMVI melanoma
# M14 melanoma = system: M14 melanoma
# MALME-3M melanoma = system: MALME-3M melanoma
# MCF7 breast = system: MCF7 breast
# MDA-MB-231 breast = system: MDA-MB-231 breast
# MDA-MB-435 melanoma = system: MDA-MB-435 melanoma
# MDA-MB-468 breast = system: MDA-MB-468 breast
# MOLT-4 leukemia = system: MOLT-4 leukemia
# NCI-H226 lung = system: NCI-H226 lung
# NCI-H23 lung = system: NCI-H23 lung
# NCI-H322M lung = system: NCI-H322M lung
# NCI-H460 NSCLC = system: NCI-H460 NSCLC
# NCI-H522 lung = system: NCI-H522 lung
# NCI/ADR-RES ovarian = system: NCI/ADR-RES ovarian
# OVCAR-3 ovarian = system: OVCAR-3 ovarian
# OVCAR-4 ovarian = system: OVCAR-4 ovarian
# OVCAR-5 ovarian = system: OVCAR-5 ovarian
# OVCAR-8 ovarian = system: OVCAR-8 ovarian
# PC-3 prostate = system: PC-3 prostate
# RPMI-8226 leukemia = system: RPMI-8226 leukemia
# RXF 393 renal = system: RXF 393 renal
# SF-268 CNS = system: SF-268 CNS
# SF-295 CNS = system: SF-295 CNS
# SF-539 CNS = system: SF-539 CNS
# SK-MEL-28 melanoma = system: SK-MEL-28 melanoma
# SK-MEL-5 melanoma = system: SK-MEL-5 melanoma
# SK-OV-3 ovarian = system: SK-OV-3 ovarian
# SN12C renal = system: SN12C renal
# SNB-19 CNS = system: SNB-19 CNS
# SNB-75 CNS = system: SNB-75 CNS
# SR leukemia = system: SR leukemia
# SW-620 colon = system: SW-620 colon
# T-47D breast = system: T-47D breast
# TK-10 renal = system: TK-10 renal
# UACC-257 melanoma = system: UACC-257 melanoma
# UACC-62 melanoma = system: UACC-62 melanoma
# UO-31 renal = system: UO-31 renal
smiles,measurement,setting,value
C=CC(=O)N1CCC(c2ccc(C(N)=O)c(-c3ccc(Oc4ccccc4)cc3)n2)CC1,GI50,786-0 renal,29.2 µM
same,TGI,786-0 renal,> 100 µM
same,GI50,A498 renal,21.3 µM
same,TGI,A498 renal,69.9 µM
same,GI50,A549 NSCLC,34.8 µM
same,TGI,A549 NSCLC,> 100 µM
same,GI50,ACHN renal,32.4 µM
same,TGI,ACHN renal,> 100 µM
same,GI50,BT-549 breast,17.9 µM
same,TGI,BT-549 breast,41.8 µM
same,GI50,CAKI-1 renal,23.5 µM
same,TGI,CAKI-1 renal,> 100 µM
same,GI50,CCRF-CEM leukemia,17.4 µM
same,TGI,CCRF-CEM leukemia,34.2 µM
same,GI50,COLO 205 colon,89.8 µM
same,TGI,COLO 205 colon,> 100 µM
same,GI50,DU-145 prostate,24.7 µM
same,TGI,DU-145 prostate,79.9 µM
same,GI50,EKVX NSCLC,22.6 µM
same,TGI,EKVX NSCLC,84.1 µM
same,GI50,HCC-2998 colon,29.5 µM
same,TGI,HCC-2998 colon,90.3 µM
same,GI50,HCT-15 colon,30.6 µM
same,TGI,HCT-15 colon,> 100 µM
same,GI50,HL-60(TB) leukemia,15 µM
same,TGI,HL-60(TB) leukemia,28.3 µM
same,GI50,HOP-62 NSCLC,25.4 µM
same,TGI,HOP-62 NSCLC,83.7 µM
same,GI50,HOP-92 NSCLC,20 µM
same,TGI,HOP-92 NSCLC,91 µM
same,GI50,HS 578T breast,21.1 µM
same,TGI,HS 578T breast,58.9 µM
same,GI50,HT29 colon,59.6 µM
same,TGI,HT29 colon,> 100 µM
same,GI50,IGROV1 ovarian,21.3 µM
same,TGI,IGROV1 ovarian,56 µM
same,GI50,K-562 leukemia,28.8 µM
same,TGI,K-562 leukemia,> 100 µM
same,GI50,KM12 colon,37.3 µM
same,TGI,KM12 colon,> 100 µM
same,GI50,LOX IMVI melanoma,25.1 µM
same,TGI,LOX IMVI melanoma,62.9 µM
same,GI50,M14 melanoma,33.9 µM
same,TGI,M14 melanoma,> 100 µM
same,GI50,MALME-3M melanoma,29.7 µM
same,TGI,MALME-3M melanoma,83.4 µM
same,GI50,MCF7 breast,28.6 µM
same,TGI,MCF7 breast,> 100 µM
same,GI50,MDA-MB-231 breast,30.8 µM
same,TGI,MDA-MB-231 breast,> 100 µM
same,GI50,MDA-MB-435 melanoma,38.7 µM
same,TGI,MDA-MB-435 melanoma,> 100 µM
same,GI50,MDA-MB-468 breast,3.99 µM
same,TGI,MDA-MB-468 breast,10.2 µM
same,GI50,MOLT-4 leukemia,12.7 µM
same,TGI,MOLT-4 leukemia,25.7 µM
same,GI50,NCI-H226 lung,22.7 µM
same,TGI,NCI-H226 lung,72.4 µM
same,GI50,NCI-H23 lung,28.3 µM
same,TGI,NCI-H23 lung,> 100 µM
same,GI50,NCI-H322M lung,25.3 µM
same,TGI,NCI-H322M lung,> 100 µM
same,GI50,NCI-H460 NSCLC,27.4 µM
same,TGI,NCI-H460 NSCLC,71.5 µM
same,GI50,NCI-H522 lung,12.2 µM
same,TGI,NCI-H522 lung,30.7 µM
same,GI50,NCI/ADR-RES ovarian,16.6 µM
same,TGI,NCI/ADR-RES ovarian,37.2 µM
same,GI50,OVCAR-3 ovarian,27.1 µM
same,TGI,OVCAR-3 ovarian,66.5 µM
same,GI50,OVCAR-4 ovarian,25.7 µM
same,TGI,OVCAR-4 ovarian,69.7 µM
same,GI50,OVCAR-5 ovarian,> 100 µM
same,TGI,OVCAR-5 ovarian,> 100 µM
same,GI50,OVCAR-8 ovarian,23.8 µM
same,TGI,OVCAR-8 ovarian,66.1 µM
same,GI50,PC-3 prostate,41.2 µM
same,TGI,PC-3 prostate,> 100 µM
same,GI50,RPMI-8226 leukemia,15.1 µM
same,TGI,RPMI-8226 leukemia,29.3 µM
same,GI50,RXF 393 renal,24.9 µM
same,TGI,RXF 393 renal,73.5 µM
same,GI50,SF-268 CNS,35.3 µM
same,TGI,SF-268 CNS,> 100 µM
same,GI50,SF-295 CNS,41.1 µM
same,TGI,SF-295 CNS,> 100 µM
same,GI50,SF-539 CNS,27 µM
same,TGI,SF-539 CNS,78.5 µM
same,GI50,SK-MEL-28 melanoma,95.1 µM
same,TGI,SK-MEL-28 melanoma,> 100 µM
same,GI50,SK-MEL-5 melanoma,18 µM
same,TGI,SK-MEL-5 melanoma,35.8 µM
same,GI50,SK-OV-3 ovarian,26.9 µM
same,TGI,SK-OV-3 ovarian,> 100 µM
same,GI50,SN12C renal,33.1 µM
same,TGI,SN12C renal,> 100 µM
same,GI50,SNB-19 CNS,39.7 µM
same,TGI,SNB-19 CNS,> 100 µM
same,GI50,SNB-75 CNS,37.6 µM
same,TGI,SNB-75 CNS,> 100 µM
same,GI50,SR leukemia,11.7 µM
same,TGI,SR leukemia,26.7 µM
same,GI50,SW-620 colon,32.9 µM
same,TGI,SW-620 colon,84.9 µM
same,GI50,T-47D breast,16.9 µM
same,TGI,T-47D breast,87.2 µM
same,GI50,TK-10 renal,25.2 µM
same,TGI,TK-10 renal,81.4 µM
same,GI50,UACC-257 melanoma,18.3 µM
same,TGI,UACC-257 melanoma,42.1 µM
same,GI50,UACC-62 melanoma,40.4 µM
same,TGI,UACC-62 melanoma,> 100 µM
same,GI50,UO-31 renal,74.1 µM
same,TGI,UO-31 renal,> 100 µM
